Patent US12006509B2, “Macrotumor engineering” (Purdue Research Foundation, priority 2019, dated 2024)
Entries after “also recorded” stand apart in the source; their conditions may differ.

Key:
[1] = system: macrotumors formed by T4-2 cells; assay: Weekly doxorubicin treatment of macrotumors, pathological assessment of nuclear morphology; format: cell-based; settings: 10 μM; 24 h weekly for three weeks; assessed at days 7 and 21
Experimental: (§1) FIG. 6. Effect of Doxorubicin treatment on macrotumors formed by T4-2 cells. a. Images of macrotumors treated (Dox) or untreated (Control) with 10 μM doxorubicin at day 0, for 24 hours and further cultured for six days. n=two replicates for this experiment (1, 2). b. Shown are the surface areas of macrotumors from A measured at days 0, 1, 2, 4, 5, and 7. c. Another experiment with 24 h Doxorubicin (Dox) treatment at day 0, 7 and 14 with images taken at day 0 and 21. Size bars, 5 mm
Macrotumors were fixed in 4% paraformaldehyde (Santa Cruz; Dallas, TX) prior to embedding in paraffin at the Histology Research Laboratory, Department of Comparative Pathobiology, Purdue University, according to standard protocols used for tumor sample embedding, sectioning, immunohistochemistry with polyclonal antibodies against caspase 3 (1/200; Cell Signaling Tech, Danvers, MA) and Ki67 (1/500; Millipore-Sigma, St Louis, MO) and hematoxylin & eosin (H&E) staining. Certain sections were stained with toluidine blue (SigmaAldrich, St. Louis, MO) before H&E staining.

[2] = system: macrotumors formed by T4-2 cells; assay: Doxorubicin uptake in macrotumors (autofluorescence, confocal Z-sections); format: cell-based; settings: 4-h treatment, 10 μg/ml [17.25 μM], macrotumors cultured 24 h
Experimental: FIG. 1. Differential centrifugation of small tumor nodules leads to the formation of simple and mixed types of macrotumors with in vivo like pathological features. The formation of tumors of up to 600 μm in size was induced by culturing either IDC T4-2 cells or S2 DCIS cells in Matrigel™ drip culture for 10 days. Upon release from Matrigel™ with dispase treatment, tumor nodules were incubated with 100 μg/ml fibronectin solution, spun down either as a single type of nodules (9,000 nodules; a-e) or as mixed types of nodules (4,500 nodules of each tumor type; f-g) and embedded in collagen I (2,000 Pa) as detailed in the methods section. a. […] Macrotumors cultured for 24 h were incubated with 17.25 μM doxorubicin for four hours and imaged with bright field and fluorescence microscopy (doxorubicin autofluorescence in the red channel). […] Fluorescence images of macrotumors formed by DiI-stained T4-2 nodules, CellMask™ Green-stained S2 nodules and mixed types of macrotumors with T4-2 and S2 nodules (either mixed before centrifugation ‘T4-2/S2 by mixing’ or sequentially centrifuged ‘T4-2/S2 by stacking’) taken with a Nikon®ECLIPSE® Ts2 inverted microscope (Nikon, Melville, NY). g. […] In D, 50 nuclei analyzed in two biological replicates for macrotumors and 100 nuclei analyzed per section of three tissue samples; *P<0.05 **P<0.01; ANOVA with Tukey's posthoc test. […]

[3] = system: macrotumors formed by T4-2 cells; assay: Doxorubicin treatment of macrotumors, tumor size (surface area); format: cell-based; settings: 10 μM; 24 h, followed by six-day resting period
Experimental: as §1
Images of whole tumors in culture and of paper scaffold were taken with a Plugable USB 2.0 Digital Microscope (Plugable Technologies, Redmond, WA). Tumor size (short and long axis) was measured with ImageJ. For pathological assessment slides were either directly visualized by microscopy or scanned (20× objective) with an Aperio/Pathology Slide Scanner (Leica Biosystems Inc., Buffalo Grove, IL).

[4] = Stiffness measurement of collagen I with fibronectin (compression test); format: physicochemical; settings: fibronectin with collagen I vs collagen I only
Experimental: FIG. 3. Impact of fibronectin on macrotumors. Small tumors (9000) preformed in Matrigel™ for 10 days were used to make macrotumors as described in the Methods section with or without incubation with 100 μg/ml fibronectin. a. Macrotumors prepared without fibronectin incubation and cultured for 24 hours (right images at 40× magnification). b. Comparison of volumes and areas of macrotumors with (+) or without (−) incubation with fibronectin after 30 minutes (0.5 h) and 24 h of culture; n=5, mean+/−SEM. c. Stiffness of collagen I (Young's modulus, Pa) prepared with Collagen I, and measured with customized eXpert 4000, ADMET by constant pressure on unconstrained sample (see reference 15 for details for this procedure). d. Staining with H&E of macrotumors prepared without incubation with fibronectin. e. representative images of macrotumors and nodules (mixed in collagen I for 10 minutes without prior centrifugation). Shown is the bar graph of the percentage of cells positive for proliferation marker Ki67 staining after 24 h of culture of macrotumors in collagen I or collagen I+fibronectin (F), or nodules (mixed in collagen I for 10 minutes without prior centrifugation); n=2; 150 nuclei analyzed per biological replicate. […]
The elastic modulus of cultured samples can be calculated from engineered stress-strains curve attained with compression tests. […]

Question: Which results are given for COc1cccc2c1C(=O)c1c(O)c3c(c(O)c1C2=O)C[C@@](O)(C(=O)CO)C[C@@H]3O[C@H]1C[C@H](N)[C@H](O)[C@H](C)O1 [doxorubicin]?
Answer: nuclear morphology (pathological assessment) [1]: increasingly affected; drug uptake / penetration in the macrotumor [2]: penetration of doxorubicin in all areas of the macrotumor; also recorded: drug uptake occurred throughout the macrotumors; tumor size [3]: appeared to decrease tumor size after day 4

Question: Which ECM stiffness [4] does the source give for Fibronectin here?
Answer: slightly raised
